Test results: patent publication US11285156B2, “Substituted piperazines as KRAS G12C inhibitors” (Amgen Inc., priority 2018, dated 2022)

Target: GDP-bound KRAS protein (aa 1-169), containing both G12C and C118A amino acid substitutions (Homo sapiens (Human), UniProt P01116, C118A/G12C)
Assay: Coupled nucleotide exchange assay (SOS-mediated nucleotide exchange, AlphaScreen)
Format: biochemical
Details: read-out: Coupled exchange IC50 (5 min; μM); 5 min compound pre-incubation

GDP-bound KRAS protein (aa 1-169), containing both G12C and C118A amino acid substitutions, sequence (P01116 other isoform, or with tags, fused parts or gaps G12C/C118A): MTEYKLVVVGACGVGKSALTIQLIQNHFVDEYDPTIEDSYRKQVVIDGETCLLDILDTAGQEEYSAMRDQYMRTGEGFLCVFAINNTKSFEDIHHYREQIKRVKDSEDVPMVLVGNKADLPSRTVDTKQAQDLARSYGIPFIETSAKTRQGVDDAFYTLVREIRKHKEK

SMILES	IC50 [µM]
CC(C)c1ncnc(C(C)C)c1-n1c(=O)nc(N2CCN(C(=O)/C=C/CN(C)C)C[C@@H]2C)c2cc(Cl)c(-c3ccccc3F)nc21 [Example 102-2, 6-Chloro-1-(4,6-diisopropylpyri-midin-5-yl)-4-[(2S)-4-[(E)-4-(dimethylamino)but-2-enoyl]-2-methyl-piperazin-1-yl]-7-(2-fluorophenyl) pyrido[2,3-d]pyrimidin-2-one]	1.23
C=CC(=O)N1C[C@H](C)N(c2nc(=O)n(-c3c(C)cc(P(C)(C)=O)cc3C(C)C)c3nc(-c4ccccc4F)c(Cl)cc23)C[C@H]1C [Example 102-7, 6-Chloro-1-(4-dimethylphosphoryl-2-isopropyl-6-methyl-phenyl)-4-[(2S,5R)-2,5-dimethyl-4-prop-2-enoyl-piperazin-1-yl]-7-(2-fluorophenyl) pyrido[2,3-d]pyrimidin-2-one]	0.376
C=CC(=O)N1C[C@H](C)N(c2nc(=O)n(-c3c(C(C)C)ccnc3C(=O)N(C)C)c3nc(-c4ccccc4F)c(Cl)cc23)C[C@H]1C [Example 102-8, 3-[6-Chloro-4-[(2S,5R)-2,5-dimethyl-4-prop-2-enoyl-piperazin-1-yl]-7-(2-fluorophenyl)-2-oxo-pyrido[2,3-d]pyrimidin-1-yl]-4-isopropyl-N,N-dimethyl-pyridine-2-carboxamide]	184
C=CC(=O)N1C[C@H](C)N(c2nc(=O)n(-c3c(C)ccnc3C(C)C)c3nc(-c4ccccc4F)c(Cl)nc23)C[C@H]1C [Example 106-6, 6-Chloro-4-[(2S,5R)-2,5-dimethyl-4-prop-2-enoyl-piperazin-1-yl]-7-(2-fluorophenyl)-1-(2-isopropyl-4-methyl-3-pyridyl)pteridin-2-one]	0.322
C=CC(=O)N1C[C@@H](C)N(c2nc(=O)n(-c3c(C)ccnc3C(C)C)c3nc(-c4ccccc4F)c(Cl)nc23)[C@@H](C)C1 [Example 106-7, 6-Chloro-4-[(2R,6S)-2,6-dimethyl-4-prop-2-enoyl-piperazin-1-yl]-7-(2-fluorophenyl)-1-(2-isopropyl-4-methyl-3-pyridyl)pteridin-2-one]	0.301
C=CC(=O)N1C[C@@H](C)N(c2nc(=O)n(-c3c(C)ccnc3C(C)C)c3nc(-c4ccccc4F)c(Cl)nc23)[C@@H](C)C1 [Example 106-7-1, 6-Chloro-4-[(2R,6S)-2,6-dimethyl-4-prop-2-enoyl-piperazin-1-yl]-7-(2-fluorophenyl)-1-(2-isopropyl-4-methyl-3-pyridyl)pteridin-2-one]	1.98
C=CC(=O)N1CCN(c2nc(=O)n(CC(C)(C)C#N)c3nc(-c4ccccc4F)c(Cl)cc23)CC1 [Example 106-10, 3-[6-Chloro-7-(2-fluorophenyl)-2-oxo-4-(4-prop-2-enoylpiperazin-1-yl)pyrido[2,3-d]pyrimidin-1-yl]-2,2-dimethyl-propanenitrile]	12.1
CC#CC(=O)N1C[C@H](C)N(c2nc(=O)n(-c3c(C)ccnc3C(C)C)c3nc(-c4ccccc4F)c(F)cc23)C[C@H]1C [Example 119-1, 4-((2S,5R)-4(But-2-ynoyl)-2,5-dimethylpiperazin-1-yl)-6-fluoro-7-(2-fluorophenyl)-1-(2-isopropyl-4-methylpyridin-3-yl)pyrido[2,3-d]pyrimidin-2(1H)-one]	24
Cc1ccnc(C(C)C)c1-n1c(=O)nc(N2C[C@@H](C)N(C(=O)C#CCN(C)C)C[C@@H]2C)c2cc(F)c(-c3ccccc3F)nc21 [Example 119-2, 4-((2S,5R)-4-(4-(Dimethylamino)but-2-ynoyl)-2,5-dimethylpiperazin-1-yl)-6-fluoro-7-(2-fluorophenyl)-1-(2-isopropyl-4-methylpyridin-3-yl)pyrido[2,3-d]pyrimidin-2(1H)-one]	0.33
C=CC(=O)N1C[C@H](C)N(c2nc(=O)n(-c3c(N(C)C)ccnc3C(C)C)c3nc(-c4c(F)cccc4NC(=O)C4CC4)c(Cl)cc23)C[C@H]1C [Example 122-3, N-[2-[6-Chloro-1-[4-(dimethylamino)-2-isopropyl-3-pyridyl]-4-[(2S,5R)-2,5-dimethyl-4-prop-2-enoyl-piperazin-1-yl]-2-oxo-pyrido[2,3-d]pyrimidin-7-yl]-3-fluoro-phenyl]cyclopropanecarboxamide]	0.503
C=CC(=O)N1C[C@H](C)N(c2nc(=O)n(-c3c(C(C)C)ccnc3C(C)C)c3nc(-c4ccccc4C)c(F)cc23)C[C@H]1C [Example 124-5, 1-(2,4-Diisopropyl-3-pyridyl)-4-[(2S,5R)-2,5-dimethyl-4-prop-2-enoyl-piperazin-1-yl]-6-fluoro-7-(o-tolyl)pyrido[2,3-d]pyrimidin-2-one]	0.439
C=CC(=O)N1C[C@H](C)N(c2nc(=O)n(-c3c(CN(CC)C(C)C)ccnc3C(C)C)c3nc(-c4ccccc4C(C)C)c(Cl)cc23)C[C@H]1C [Example 141-2, 6-Chloro-4-[(2S,5R)-2,5-dimethyl-4-prop-2-enoyl-piperazin-1-yl]-1-[4-[[ethyl(isopropyl)amino]methyl]-2-isopropyl-3-pyridyl]-7-(2-isopropylphenyl)pyrido[2,3-d]pyrimidin-2-one]	0.279
C=CC(=O)N1C[C@H](C)N(c2nc(=O)n3c4nc(c(Cl)cc24)-c2ccccc2C/C=C\Cc2cccc(C(C)C)c2-3)C[C@H]1C [Example 146-1, (F)-(9Z)-19-Chloro-22-((2S,5R)-2,5-dimethyl-4-(2-propenoyl)-1-piperazinyl)-3-(2-propanyl)-1,23,26-triazapentacyclo[16.6.2.0˜2,7˜.0˜12,17˜0˜21,25-]hexacosa-2,4,6,9,12,14,16,18,20,22,25-undecaen-24-one and (F)-19-chloro-22-((2S,5R)-2,5-dimethyl-4-(2-propenoyl)-1-piperazinyl)-3-(2-propanyl)-1,23,26-triazapentacyclo[6.6.2.0˜2,7˜.0˜12,17˜.0˜21,25˜]hexacosa-2,4,6,9,12,14,16,18,20,22,25-undecaen-24-one]	12.8
C=CC(=O)N1C[C@H](C)N(c2nc(=N)n(CC(C)(C)C)c3nc(-c4ccccc4F)c(Cl)cc23)C[C@H]1C [Example 150, 1-((2R,5S)-4-(6-Chloro-7-(2-fluorophenyl)-2-imino-1-neopentyl-1,2-dihydropyrido[2,3-d]pyrimidin-4-yl)-2,5-dimethylpiperazin-1-yl)prop-2-en-1-one]	0.313
C=CC(=O)N1C[C@H](C)N(c2n/c(=N\C)n(CC(C)(C)C)c3nc(-c4ccccc4F)c(Cl)cc23)C[C@H]1C [Example 151, 1-((2R,5S)-4-((Z)-6-Chloro-7-(2-fluorophenyl)-2-(methylimino)-1-neopentyl-1,2-dihydropyrido[2,3-d]pyrimidin-4-yl)-2,5-dimethylpiperazin-1-yl)prop-2-en-1-one 2,2,2-trifluoroacetate]	0.348
C=CC(=O)N1C[C@H](C)N(c2nc(=O)n(-c3ccccc3C(C)C)c3c2CCN(c2ccccc2)C3)C[C@H]1C [Example 152, 4-((2S,5R)-4-Acryloyl-2,5-dimethylpiperazin-1-yl)-1-(2-isopropylphenyl)-7-phenyl-5,6,7,8-tetrahydropyrido[3,4-d]pyrimidin-2(1H)-one]	132
C=CC(=O)N1C[C@H](C)N(c2nc(=O)n(-c3c(C(C)C)nc(CC)nc3C(C)C)c3nc(-c4ccccc4F)c(Cl)cc23)C[C@H]1C [Example 169, 6-Chloro-4-[(2S,5R)-2,5-dimethyl-4-prop-2-enoyl-piperazin-1-yl]-1-(2-ethyl-4,6-diisopropyl-pyrimidin-5-yl)-7-(2-fluorophenyl)pyrido[2,3-d]pyrimidin-2-one]	0.55
